From ChEMBL document CHEMBL3396997, “Piperidine-3,4-diol and piperidine-3-ol derivatives of pyrrolo[2,1-f][1,2,4]triazine as inhibitors of anaplastic lymphoma kinase” (Bioorg Med Chem Lett, 2015)
≈ marks a conversion by molar mass, not a printed value. One block for each compound: values may come before it. Calls of active or inactive are those of the source. The rule behind the calls is not given here.

Assays:
[1] = Half life in human liver microsomes; assay type: ADME
[2] = Half life in rat liver microsomes; assay type: ADME
[3] = Half life in mouse liver microsomes; assay type: ADME
[4] = Half life in monkey liver microsomes; assay type: ADME, Macaca mulatta; conditions: rhesus monkey
[5] = Solubility in water at neutral pH; assay type: physicochemical
Mus musculus [6] = experiment: Toxicity in human SUP-M2 cells xenografted SCID mouse assessed as incidences of overt toxicity at 55 mg/kg, po BID for 10 days; assay type: organism-based; design: dose 55 mg/kg, route oral; conditions: in vivo, 240 h
Mus musculus [7] = experiment: Toxicity in human SUP-M2 cells xenografted SCID mouse assessed as body weight loss at 30 mg/kg, po BID for 10 days; assay type: organism-based; design: dose 30 mg/kg, route oral; conditions: in vivo, 240 h
Cytochrome P450 2D6 = Cytochrome P450 2D6 (Homo sapiens, UniProt P10635); experiment: Inhibition of CYP2D6A (unknown origin); assay type: ADME
Chain of Cytochrome P450 2D6 (P10635 whole entry): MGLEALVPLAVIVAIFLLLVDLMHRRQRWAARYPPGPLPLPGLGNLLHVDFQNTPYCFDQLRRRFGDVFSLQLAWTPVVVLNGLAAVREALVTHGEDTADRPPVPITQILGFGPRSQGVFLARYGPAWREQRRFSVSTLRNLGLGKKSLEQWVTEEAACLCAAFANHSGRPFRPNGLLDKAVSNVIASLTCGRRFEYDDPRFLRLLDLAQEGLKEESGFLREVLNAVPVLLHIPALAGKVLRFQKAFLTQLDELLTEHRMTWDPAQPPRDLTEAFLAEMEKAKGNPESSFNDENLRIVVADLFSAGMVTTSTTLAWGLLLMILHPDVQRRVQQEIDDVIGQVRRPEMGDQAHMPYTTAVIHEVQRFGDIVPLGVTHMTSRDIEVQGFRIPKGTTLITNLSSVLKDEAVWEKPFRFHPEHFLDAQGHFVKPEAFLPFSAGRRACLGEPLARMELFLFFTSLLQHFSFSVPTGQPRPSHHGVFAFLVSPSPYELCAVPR

Cytochrome P450 2C19 = Cytochrome P450 2C19 (Homo sapiens, UniProt P33261); experiment: Inhibition of CYP2C19 (unknown origin); assay type: ADME
Chain of Cytochrome P450 2C19 (P33261 whole entry): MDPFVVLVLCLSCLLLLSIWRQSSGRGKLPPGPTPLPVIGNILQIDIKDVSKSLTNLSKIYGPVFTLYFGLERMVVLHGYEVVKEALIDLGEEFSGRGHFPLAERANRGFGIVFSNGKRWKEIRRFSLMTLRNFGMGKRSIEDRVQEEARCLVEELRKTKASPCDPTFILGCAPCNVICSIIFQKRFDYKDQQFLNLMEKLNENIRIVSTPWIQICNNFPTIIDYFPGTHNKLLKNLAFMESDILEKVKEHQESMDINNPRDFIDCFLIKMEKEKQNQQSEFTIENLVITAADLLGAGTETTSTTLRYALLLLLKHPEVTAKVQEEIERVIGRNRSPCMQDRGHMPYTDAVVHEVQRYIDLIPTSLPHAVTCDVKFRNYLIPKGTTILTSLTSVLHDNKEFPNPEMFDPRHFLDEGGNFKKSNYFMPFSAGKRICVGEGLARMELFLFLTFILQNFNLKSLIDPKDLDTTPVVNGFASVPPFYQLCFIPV

[8] = Drug concentration in brain of human SUP-M2 cells xenografted SCID mouse at 30 mg/kg, po measured after 16 hrs; assay type: ADME, organism-based; design: dose 30 mg/kg, route oral; conditions: read-out: Drug uptake
Cytochrome P450 2C9 = Cytochrome P450 2C9 (Homo sapiens, UniProt P11712); experiment: Inhibition of CYP2C9 (unknown origin); assay type: ADME
Chain of Cytochrome P450 2C9 (P11712 whole entry): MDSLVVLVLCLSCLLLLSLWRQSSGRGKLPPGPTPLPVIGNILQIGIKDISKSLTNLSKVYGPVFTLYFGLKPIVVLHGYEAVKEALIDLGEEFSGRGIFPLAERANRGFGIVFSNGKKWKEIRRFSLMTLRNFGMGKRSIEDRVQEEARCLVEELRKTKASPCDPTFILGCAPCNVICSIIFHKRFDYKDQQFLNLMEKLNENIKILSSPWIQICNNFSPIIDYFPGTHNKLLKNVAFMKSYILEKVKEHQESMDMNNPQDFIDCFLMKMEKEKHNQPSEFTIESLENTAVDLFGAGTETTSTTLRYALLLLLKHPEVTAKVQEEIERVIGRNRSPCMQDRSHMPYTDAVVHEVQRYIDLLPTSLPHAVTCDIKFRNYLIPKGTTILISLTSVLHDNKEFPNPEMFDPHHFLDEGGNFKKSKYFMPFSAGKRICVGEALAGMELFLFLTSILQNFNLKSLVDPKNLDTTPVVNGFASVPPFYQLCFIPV

Brain [9] = experiment: (§1) Drug concentration in brain of human SUP-M2 cells xenografted SCID mouse at 30 mg/kg, po measured after 2 hrs; assay type: ADME, organism-based; design: dose 30 mg/kg, route oral; conditions: in vivo, 2 h
Mus musculus [10] = experiment: Toxicity in human SUP-M2 cells xenografted SCID mouse assessed as body weight loss at 55 mg/kg, po BID for 10 days; assay type: organism-based; design: dose 55 mg/kg, route oral; conditions: in vivo, 240 h
Plasma [11] = experiment: (§2) Plasma concentration in human SUP-M2 cells xenografted SCID mouse at 30 mg/kg, po measured after 6 hrs; assay type: ADME, organism-based; design: dose 30 mg/kg, route oral; conditions: in vivo, 6 h
Mus musculus [12] = experiment: Toxicity in human SUP-M2 cells xenografted SCID mouse assessed as incidences of overt toxicity at 30 mg/kg, po BID for 10 days; assay type: organism-based; design: dose 30 mg/kg, route oral; conditions: in vivo, 240 h
Cytochrome P450 1A2 = biological target: T1, Cytochrome P450 1A2 (Homo sapiens, UniProt P05177); experiment: Inhibition of CYP1A2 (unknown origin); assay type: ADME
T1 sequence (P05177 whole entry): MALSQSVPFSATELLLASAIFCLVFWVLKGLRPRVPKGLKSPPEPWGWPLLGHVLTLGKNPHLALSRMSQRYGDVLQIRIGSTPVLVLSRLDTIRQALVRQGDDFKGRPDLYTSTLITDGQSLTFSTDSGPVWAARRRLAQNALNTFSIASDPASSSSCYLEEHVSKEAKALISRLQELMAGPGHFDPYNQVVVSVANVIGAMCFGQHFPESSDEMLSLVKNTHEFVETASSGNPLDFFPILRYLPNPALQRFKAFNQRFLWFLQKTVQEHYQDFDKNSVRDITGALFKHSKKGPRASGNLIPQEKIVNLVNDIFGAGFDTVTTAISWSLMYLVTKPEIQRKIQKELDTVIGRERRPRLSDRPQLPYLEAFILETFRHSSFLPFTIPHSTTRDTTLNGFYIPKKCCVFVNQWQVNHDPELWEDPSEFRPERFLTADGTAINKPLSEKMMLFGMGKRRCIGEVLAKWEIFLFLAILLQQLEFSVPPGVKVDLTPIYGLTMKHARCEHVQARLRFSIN

Brain [13] = experiment: (§3) Drug concentration in brain of human SUP-M2 cells xenografted SCID mouse at 30 mg/kg, po measured after 6 hrs; assay type: ADME, organism-based; design: dose 30 mg/kg, route oral; conditions: in vivo, 6 h
[14] = Plasma concentration in human SUP-M2 cells xenografted SCID mouse at 30 mg/kg, po measured after 16 hrs; assay type: ADME, organism-based; design: dose 30 mg/kg, route oral
[15] = biological target: Voltage-gated inwardly rectifying potassium channel KCNH2 (Homo sapiens, UniProt Q12809); experiment: Inhibition of human ERG by patch clamp cellular assay
Chain of Voltage-gated inwardly rectifying potassium channel KCNH2 (Q12809 whole entry): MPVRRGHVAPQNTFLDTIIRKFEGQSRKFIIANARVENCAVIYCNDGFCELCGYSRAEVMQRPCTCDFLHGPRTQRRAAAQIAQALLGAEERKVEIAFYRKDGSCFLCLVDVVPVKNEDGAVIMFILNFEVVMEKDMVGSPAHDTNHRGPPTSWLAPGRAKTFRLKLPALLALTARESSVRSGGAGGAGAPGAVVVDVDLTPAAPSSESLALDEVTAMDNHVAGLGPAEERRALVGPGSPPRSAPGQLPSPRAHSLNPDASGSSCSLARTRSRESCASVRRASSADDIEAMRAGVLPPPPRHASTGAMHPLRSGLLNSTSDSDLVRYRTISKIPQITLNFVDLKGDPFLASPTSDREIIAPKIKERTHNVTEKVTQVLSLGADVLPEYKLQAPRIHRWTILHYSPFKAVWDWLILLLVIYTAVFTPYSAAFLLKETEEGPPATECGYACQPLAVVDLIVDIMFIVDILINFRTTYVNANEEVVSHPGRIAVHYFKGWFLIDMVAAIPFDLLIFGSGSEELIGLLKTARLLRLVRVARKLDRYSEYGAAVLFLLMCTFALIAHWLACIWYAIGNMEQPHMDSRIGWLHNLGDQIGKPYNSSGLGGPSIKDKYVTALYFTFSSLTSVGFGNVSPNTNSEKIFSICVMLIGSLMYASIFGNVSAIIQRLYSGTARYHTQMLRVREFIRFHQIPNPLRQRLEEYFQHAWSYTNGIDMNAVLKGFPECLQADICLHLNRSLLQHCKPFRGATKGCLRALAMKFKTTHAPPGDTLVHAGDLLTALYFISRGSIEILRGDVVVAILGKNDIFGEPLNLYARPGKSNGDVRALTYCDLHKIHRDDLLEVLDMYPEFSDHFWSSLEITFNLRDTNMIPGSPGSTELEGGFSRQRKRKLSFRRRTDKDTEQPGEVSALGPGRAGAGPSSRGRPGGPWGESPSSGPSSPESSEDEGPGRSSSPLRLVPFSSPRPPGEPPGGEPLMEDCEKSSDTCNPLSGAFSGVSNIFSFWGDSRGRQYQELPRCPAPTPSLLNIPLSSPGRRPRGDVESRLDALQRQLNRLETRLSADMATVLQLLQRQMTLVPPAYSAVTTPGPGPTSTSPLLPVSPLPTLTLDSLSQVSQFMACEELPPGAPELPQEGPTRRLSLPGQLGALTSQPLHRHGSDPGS

Cytochrome P450 3A4 = Cytochrome P450 3A4 (Homo sapiens, UniProt P08684); experiment: Inhibition of CYP3A4 (unknown origin); assay type: ADME
Chain of Cytochrome P450 3A4 (P08684 whole entry): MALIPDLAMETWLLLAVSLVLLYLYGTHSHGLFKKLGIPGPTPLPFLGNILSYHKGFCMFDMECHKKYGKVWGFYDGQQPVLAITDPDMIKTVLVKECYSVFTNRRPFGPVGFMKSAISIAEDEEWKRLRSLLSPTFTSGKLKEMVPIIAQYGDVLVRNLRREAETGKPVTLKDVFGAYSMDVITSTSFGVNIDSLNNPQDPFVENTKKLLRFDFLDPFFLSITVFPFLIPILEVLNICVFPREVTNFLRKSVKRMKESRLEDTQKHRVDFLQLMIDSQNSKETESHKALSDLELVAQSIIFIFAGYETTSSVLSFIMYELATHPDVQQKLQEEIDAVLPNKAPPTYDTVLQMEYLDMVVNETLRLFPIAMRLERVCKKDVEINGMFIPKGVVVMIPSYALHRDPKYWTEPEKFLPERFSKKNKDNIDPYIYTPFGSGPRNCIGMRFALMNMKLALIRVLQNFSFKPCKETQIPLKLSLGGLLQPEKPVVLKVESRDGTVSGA

Plasma [16] = experiment: (§4) Plasma concentration in human SUP-M2 cells xenografted SCID mouse at 30 mg/kg, po measured after 2 hrs; assay type: ADME, organism-based; design: dose 30 mg/kg, route oral; conditions: in vivo, 2 h
SUP-M2 [17] = experiment: Antitumor activity against human SUP-M2 cells xenografted in SCID mouse assessed as induction of tumor regression at 55 mg/kg, po BID for 10 days; assay type: functional, organism-based; design: dose 55 mg/kg
SUP-M2 [18] = experiment: Antitumor activity against human SUP-M2 cells xenografted in SCID mouse assessed as induction of tumor regression at 30 mg/kg, po BID for 10 days; assay type: functional, organism-based; design: dose 30 mg/kg
[19] = Tmax in Sprague-Dawley rat at 5 mg/kg, po; assay type: ADME, organism-based; design: dose 5 mg/kg, route oral; conditions: in vivo
[20] = Drug concentration in brain of human SUP-M2 cells xenografted SCID mouse at 30 mg/kg, po measured after 12 hrs; assay type: ADME, organism-based; design: dose 30 mg/kg, route oral; conditions: read-out: Drug uptake
[21] = Half life in Sprague-Dawley rat at 1 mg/kg, iv; assay type: ADME, organism-based; design: dose 1 mg/kg, route intravenous; conditions: in vivo
[22] = as §1; assay type: ADME, organism-based; design: dose 30 mg/kg, route oral; conditions: SCID, brain, read-out: Drug uptake
[23] = Plasma concentration in human SUP-M2 cells xenografted SCID mouse at 30 mg/kg, po measured after 12 hrs; assay type: ADME, organism-based; design: dose 30 mg/kg, route oral
[24] = as §2; assay type: ADME, organism-based; design: dose 30 mg/kg, route oral; conditions: SCID, plasma
[25] = Cmax in Sprague-Dawley rat at 5 mg/kg, po; assay type: ADME, organism-based; design: dose 5 mg/kg, route oral; conditions: in vivo
[26] = Drug concentration in brain of human SUP-M2 cells xenografted SCID mouse at 30 mg/kg, po measured after 24 hrs; assay type: ADME, organism-based; design: dose 30 mg/kg, route oral; conditions: read-out: Drug uptake
[27] = as §3; assay type: ADME, organism-based; design: dose 30 mg/kg, route oral; conditions: SCID, brain, read-out: Drug uptake
[28] = AUC (0 to infinity) in Sprague-Dawley rat at 1 mg/kg, iv; assay type: ADME, organism-based; design: time infinity, dose 1 mg/kg, route intravenous; conditions: plasma
[29] = Plasma concentration in human SUP-M2 cells xenografted SCID mouse at 30 mg/kg, po measured after 24 hrs; assay type: ADME, organism-based; design: dose 30 mg/kg, route oral
[30] = Clearance in Sprague-Dawley rat at 1 mg/kg, iv; assay type: ADME, organism-based; design: dose 1 mg/kg, route intravenous; conditions: in vivo
[31] = as §4; assay type: ADME, organism-based; design: dose 30 mg/kg, route oral; conditions: SCID, plasma
[32] = AUC (0 to infinity) in Sprague-Dawley rat at 5 mg/kg, po; assay type: ADME, organism-based; design: time infinity, dose 5 mg/kg, route oral; conditions: plasma
[33] = Oral bioavailability in Sprague-Dawley rat at 5 mg/kg; assay type: ADME, organism-based; conditions: in vivo
[34] = Volume of distribution in Sprague-Dawley rat at 1 mg/kg, iv; assay type: ADME, organism-based; design: dose 1 mg/kg, route intravenous; conditions: in vivo

SMILES: COc1cc([C@@]2(O)CCN(CC(N)=O)C[C@@H]2O)ccc1Nc1ncc2ccc(-c3ccccc3N(C)S(C)(=O)=O)n2n1
- half-life [1]: 32 min
- solubility [5]: ≥ 33 µg/mL
- half-life [2]: 26 min
- half-life [3]: > 40 min
- half-life [4]: 8 min

SMILES: COc1cc([C@@]2(O)CCN(CC(N)=O)C[C@@H]2O)ccc1Nc1ncc2ccc(-c3ccccc3OC)n2n1
- half-life [1]: > 40 min
- solubility [5]: ≥ 33 µg/mL
- half-life [2]: 31 min
- half-life [3]: > 40 min
- half-life [4]: 17 min

SMILES: COc1cc([C@H]2CCN(CCO)C[C@@H]2O)ccc1Nc1ncc2ccc(-c3ccccc3OC)n2n1 [listing 1 of 2 here]
- Activity (Mus musculus [6]): Non-toxic
- Activity (Mus musculus [7]): Non-toxic
- IC50 (Cytochrome P450 2D6): > 30 µM
- IC50 (Cytochrome P450 2C19): 17 µM
- concentration at 16 h [8]: 16100 ng/g
- IC50 (Cytochrome P450 2C9): 19 µM
- Drug uptake (Brain [9]): 1217 ng/g
- Activity (Mus musculus [10]): Non-toxic
- Cp (Plasma [11]): 573 ng/mL
- Activity (Mus musculus [12]): Non-toxic
- IC50 (Cytochrome P450 1A2): > 30 µM
- Drug uptake (Brain [13]): 3150 ng/g
- concentration at 16 h [14]: 567 ng/mL
- IC50 [15]: 6.8 µM
- IC50 (Cytochrome P450 3A4): 12 µM
- Cp (Plasma [16]): 407 ng/mL

SMILES: COc1cc([C@H]2CCN(CCO)C[C@@H]2O)ccc1Nc1ncc2ccc(-c3ccccc3OC)n2n1 [listing 2 of 2 here]
- inhibition (SUP-M2 [17]): Active
- inhibition (SUP-M2 [18]): Active

SMILES: COc1cc([C@@H]2CCN(CCO)C[C@@H]2O)ccc1Nc1ncc2ccc(-c3ccccc3OC)n2n1 (racemic)
- Tmax [19]: 360 min
- half-life [1]: > 40 min
- concentration at 12 h [20]: 2520 ng/g
- solubility [5]: 50 µg/mL (≈ 102 µM)
- half-life [21]: 150 min
- concentration at 2 h [22]: 1650 ng/g
- half-life [2]: > 40 min
- concentration at 12 h [23]: 164 ng/mL
- concentration at 6 h [24]: 201 ng/mL
- Cmax [25]: 85 ng/mL
- half-life [3]: 37 min
- concentration at 24 h [26]: 1580 ng/g
- half-life [4]: > 40 min
- concentration at 6 h [27]: 1770 ng/g
- AUC(0-inf) [28]: 371 ng·h/mL
- concentration at 24 h [29]: 19 ng/mL
- clearance [30]: 46 mL/min/kg
- concentration at 2 h [31]: 389 ng/mL
- AUC(0-inf) [32]: 479 ng·h/mL
- bioavailability [33]: 26%
- Vd [34]: 9.9 L/kg

SMILES: COc1cc([C@@]2(O)CCN(C)C[C@@H]2O)ccc1Nc1ncc2ccc(-c3ccccc3OC)n2n1 (relative stereo)
- half-life [1]: > 40 min
- half-life [2]: > 40 min
- half-life [3]: > 40 min
- half-life [4]: 32 min
- IC50 [15]: Active

SMILES: COc1cc([C@H]2CCN(CCO)C[C@@H]2O)ccc1Nc1ncc2ccc(-c3ccccc3OC)n2n1 (relative stereo)
- Tmax [19]: 240 min
- half-life [1]: > 40 min
- concentration at 12 h [20]: 2670 ng/g
- half-life [21]: 192 min
- concentration at 2 h [22]: 1960 ng/g
- half-life [2]: > 40 min
- concentration at 12 h [23]: 213 ng/mL
- concentration at 6 h [24]: 361 ng/mL
- Cmax [25]: 97 ng/mL
- half-life [3]: > 40 min
- concentration at 24 h [26]: 1280 ng/g
- half-life [4]: 30 min
- concentration at 6 h [27]: 3930 ng/g
- AUC(0-inf) [28]: 459 ng·h/mL
- concentration at 24 h [29]: 55 ng/mL
- clearance [30]: 39 mL/min/kg
- concentration at 2 h [31]: 523 ng/mL
- AUC(0-inf) [32]: 708 ng·h/mL
- bioavailability [33]: 31%
- Vd [34]: 10.3 L/kg

SMILES: COc1cc(C2CCN(CCO)CC2O)ccc1Nc1ncc2ccc(-c3ccccc3OC)n2n1 (single isomer, unassigned; enantiomer 1)
- concentration at 16 h [8]: 2210 ng/g
- concentration at 2 h [22]: 1030 ng/g
- concentration at 6 h [24]: 148 ng/mL
- concentration at 6 h [27]: 1160 ng/g
- concentration at 16 h [14]: 51 ng/mL
- concentration at 2 h [31]: 355 ng/mL

The remaining lines, values ahead:

- half-life [1]: > 40 min
- half-life [2]: > 40 min
- half-life [3]: > 40 min
- half-life [4]: 25 min
SMILES: COc1cc([C@@]2(O)CCNC[C@@H]2O)ccc1Nc1ncc2ccc(-c3ccccc3N(C)S(C)(=O)=O)n2n1

- half-life [1]: > 40 min
- half-life [2]: > 40 min
- half-life [3]: > 40 min
- half-life [4]: > 40 min
SMILES: COc1cc([C@@]2(O)CCNC[C@@H]2O)ccc1Nc1ncc2ccc(-c3ccccc3OC)n2n1

- half-life [1]: > 40 min
- half-life [2]: > 40 min
- half-life [3]: 18 min
- half-life [4]: 22 min
SMILES: COc1cc(C2CCN(C)CC2O)ccc1Nc1ncc2ccc(-c3ccccc3OC)n2n1 (racemic)

- half-life [1]: > 40 min
- half-life [2]: > 40 min
- half-life [3]: > 40 min
- half-life [4]: > 40 min
SMILES: COc1cc([C@@H]2CCNC[C@@H]2O)ccc1Nc1ncc2ccc(-c3ccccc3OC)n2n1 (relative stereo)

- half-life [1]: 19 min
- solubility [5]: 2 µg/mL (≈ 3.98 µM)
- half-life [2]: 34 min
- half-life [3]: > 40 min
- half-life [4]: 7 min
SMILES: COc1cc([C@@H]2CCN(CC(N)=O)C[C@@H]2O)ccc1Nc1ncc2ccc(-c3ccccc3OC)n2n1 (relative stereo)
